Columns and labels:
purified B cells = experiment: B cell proliferation in vitro (anti-CD40, 3H-thymidine incorporation); assay type: cell-based; conditions: anti-CD40 stimulation, 72 h; for IC50: B-cell, read-out: IC50 for inhibition of B cell proliferation; for B cell proliferation: varying doses
Procedure: (§1) FIG. 7 is a graphical representation depicting that 3,4-DAA and 3-HAA inhibit B and T cell proliferation in vitro. Purified B and T cells were stimulated for 72 h with anti-CD40 (a), or anti-CD3/anti-CD28 (b) respectively, in the presence of varying doses of 3,4-DAA, or 3-HAA.
(§2) A single cell suspension was prepared by pushing splenic tissue through a cell strainer, and erythrocytes were lysed using an ammonium chloride solution (Sigma, St Louis, Mo.). B cells were positively enriched by using anti-IgM microbeads (BD Pharmingen), and T cells were positively enriched using anti-CD4 MACS microbeads, according to the manufacturer's guidelines (Miltenyi Biotec, Bergisch Gladbach, Germany). Purity was assessed by flow cytometric analysis (B cell>90% CD19+, T cell>90% CD4+). Cells were cultured at 5×10^5 cells/ml in 200 μl complete RPMI, as above, in a flat bottom 96-well plate and cultured for 72 h. B cells were stimulated with anti-CD40 monoclonal antibody (10 μg/ml; BD), and T cells were stimulated with 5 μg/ml plate-bound anti-CD3 (ebiosciences) plus 5 μg/ml soluble anti-CD28 (ebiosciences). 3,4-DAA, 3-HAA, or vehicle (DMSO) was added at graded concentrations immediately prior to stimulation. 48 hours after stimulation, 100 μl culture medium was collected, and cells were pulsed with 1 μCi ^3H thymidine per well for 18 h. Cells were then harvested and plates assessed for thymidine incorporation. Each assay was performed on a minimum of 3 occasions. IFN-γ, IL-10 and IL-5 levels were assessed in the culture medium by ELISA, as above.
(§3) Activation of purified B (FIG. 7a) and T cells (FIG. 7b) was induced by anti-CD40, and anti-CD3/CD28 respectively, and proliferation was assessed by ^3H-thymidine incorporation. […] Inhibition of proliferation was also observed when B cells were stimulated with LPS or anti-IgM. […] It was concluded that the effects of 3,4-DAA and 3-HAA on T and B cells in vitro were remarkably similar, though not identical. It is of also note that 3-HAA had no action on inflammation or allodynia, when administered therapeutically in CIA at doses of up to 400 mg/kg/day.

[1] = test system: mechanical and thermal allodynia in CIA; experiment: Allodynia assessment in arthritic mice (Plantar Von-Frey, Hargreaves test); assay type: in vivo
Procedure: FIG. 6 is an image depicting that 3,4-DAA inhibits mechanical and thermal allodynia, and inhibits astrocytic activation in arthritic mice. Mechanical (a) and thermal (b) allodynia, and paw swelling (c) and clinical score (d) were assessed in naïve mice on the day of arthritis onset, and up to 10 days following therapy with 200 mg/kg 3,4-DAA, […] dexamethasone, or vehicle. […] Whilst 3,4-DAA therapy reduced astrocytic activation (bottom right panel) dexamethasone had no action on GFAP levels (bottom left panel). Quantification of the number of hyper-plastic astrocytes in the spinal cord 10 days following onset of arthritis was performed (f).
The pain thresholds of the mice were assessed prior to immunization (naïve) on day of onset (day 0) and up to 10 days following therapy with 3,4-DAA (200 mg/kg/day), dexamethasone (0.5 mg/kg/2 days) or vehicle alone (n=9 per group). The Ugo Basile 37400 Plantar Von-Frey microprocessor controlled unit was used to assess mechanical hyperalgesia and Ugo Basile 7370-6 Plantar Test (Hargreaves test) was used to assess thermal hyperalgesia. Mechanical hyperalgesia was assessed by applying an increasing force to the hind paw at the rate of 3 g/second, and measuring the force required to elicit lifting of the paw. Thermal hyperalgesia was assessed by applying an increasing infrared source (intensity 50), and measuring the time required for lifting of the paw.

T-cells = experiment: Cytokine production by stimulated T cells in vitro (ELISA); assay type: cell-based; conditions: anti-CD3/anti-CD28 stimulation, graded concentrations
Procedure: as §1, §2, §3

purified T cells = experiment: T cell proliferation in vitro (anti-CD3/anti-CD28, 3H-thymidine incorporation); assay type: cell-based; conditions: anti-CD3/anti-CD28 stimulation, 72 h; for IC50: T-cell, read-out: IC50 for inhibition of T cell proliferation; for T cell proliferation: varying doses
Procedure: as §1, §2, §3

[2] = established arthritis, up to 10 days therapy, 3,4-DAA 200 mg/kg/day, dexamethasone 0.5 mg/kg/2 days

SMILES | IC50 (purified B cells) | B cell proliferation (purified B cells) | action on allodynia in CIA ([1]; administered therapeutically at doses of up to 400 mg/kg/day) | IFN-γ production by T-cells (T-cells) | IL-5 production by T-cells (T-cells) | IL-10 production by T-cells (T-cells) | IC50 (purified T cells) | T cell proliferation (purified T cells) | mechanical allodynia [1, 2] | thermal allodynia [1, 2]
Nc1c(O)cccc1C(=O)O [3-Hydroxyanthranilic acid] | 65 µM | dose-dependently inhibited | no action | dose-dependently reduced | increased | increased | 100 µM | dose-dependently inhibited |  | 
COc1ccc(/C=C/C(=O)Nc2ccccc2C(=O)O)cc1OC [Tranilast, 2-[[3-(3,4-dimethoxyphenyl)-1-oxo-2-propenyl]amino]benzoic acid] | 73 µM | dose-dependently inhibited |  | dose-dependently reduced | dose-dependently inhibited | dose-dependently inhibited | 28 µM | dose-dependently inhibited | abolished | abolished
